Read-outs that look alike come from different tables or passages of the source. Values belong to the compound of their own block, whether it stands above or below them.
Experiments:
bacteria = test: Killing tests, bacterial strains in general; format: cell-based; details: preliminary experiments, without NCT
Protocol: Microbicidal activity. […] The impact of ammonium chloride on the microbicidal activity of NCT could be confirmed in several bacterial strains (FIG. 4).
Bacterial strains, Staphylococcus aureus ATCC 25923 and 6538, Staphylococcus epidermidis ATCC 12228, Escherichia coli ATCC 11229, Proteus mirabilis ATCC 14153, Pseudomonas aeruginosa ATCC 27853, and a clinical isolate of […] deep-frozen for storage were grown overnight on tryptic soy agar (Merck, Darmstadt, Germany). Colonies from this agar were grown in tryptic soy broth (Merck, Darmstadt, Germany) at 37° C. overnight and washed twice with saline.
Killing tests. Bacteria were diluted in buffered test solution to concentrations of 1×10^6 to 5×10^7 CFU/mL. Immediately and subsequent to different incubation times at room temperature, aliquots were removed, and NCT with or without ammonium chloride or plain monochloramine was inactivated by 10-fold dilution in 0.3% sodium thiosulfate. Aliquots (50 μL) of these solutions as well as of 100-fold further dilutions in saline were spread onto tryptic soy agar plates with an automatic spiral plater (Don Whitley Scientific Limited, West Yorkshire, UK) in duplicates allowing a detection limit of 200 CFU/mL. Plates were grown at 37° C., and CFU were counted after 24 and 48 hours. Controls without NCT were treated the same way.

[1] = Stability of active chlorine compound with ammonium salt in water (pH, oxidation capacity); format: physicochemical
[2] = rabbit eye (Nagl et al.); cited from earlier work
[3] = human eye (Nagl et al.); cited from earlier work
[4] = Example 5: penetration through the human cornea (diffusion chamber); details: room temperature
Protocol: A human cornea was clamped in a specially designed chamber. The upper compartment was filled with the disinfectant, while the lower one contained the buffer solution. The system was equilibrated for 2, 4, and 6 hours at room temperature, and afterwards the oxidation capacity was determined in the buffer solution of the lower compartment.

[5] = Example 2: stability of a pure monochloramine solution (UV spectrum); format: physicochemical; details: three days storage in the refrigerator at 0-3° C.
Protocol: A solution of 1 g each of N-chlorotaurine and ammonium chloride in 100 mL water was distilled in a rotavapor (water stream vacuum, water bath temperature 50° C.). The distillate contained, according to the UV spectrum, […] pure monochloramine (NH2Cl, absorption band at λmax=244 nm, A244=0.9812, d=0.1 cm, ε244=461.6 L mol^−1 cm^−1). After three days storage in the refrigerator at 0-3° C., the band at 244 disappeared, while two bands at 203 nm (A=1.146) and 294 nm (A0 0.148) appeared which are characteristic for the chromophor —NCl2. Gottardi et al., supra.

[6] = with ammonium, 0.1 M phosphate buffer
[7] = with excess ammonium, no buffer

Compound: Cl.N [Ammonium chloride]
Influence on viability (bacteria): no influence on viability

Compound: [Ca+2].[O-]Cl.[O-]Cl [Calcium hypochlorite]
Behaviour with ammonium compared with chloramine-T [1]: behave in the same manner

Compound: O=S(=O)(O)CCNCl [NCT, N-chlorotaurine]
Tolerability [2]: good tolerability
Tolerability [3]: good tolerability
Diffused oxidation capacity, from the starting value in the upper compartment ([4]; after 2 hours): 1.3%
Diffused oxidation capacity, from the starting value in the upper compartment ([4]; after 4 hours): 4.8%
Diffused oxidation capacity, from the starting value in the upper compartment ([4]; after 6 hours): 25.4%

Loss of oxidation capacity within 1 hour [1, 6]: 90%
pH within 2 hours [1, 6]: 6.3
pH, start [1, 6]: 7.0
pH within 8 minutes [1, 7]: 2.9
pH, start [1, 7]: 6.8
Compound: Cc1ccc(S(=O)(=O)NCl)cc1.[Na] [chloramine-T, N-chloro-4-toluenesulfonamide sodium]

Compound: NCl [monochloramine]
Conversion of NH2Cl to NHCl2 [5]: complete conversion of NH2Cl to NHCl2

Compound: O=c1nc([O-])n(Cl)c(=O)n1Cl.[Na+] [sodium dichloro-isocyanurate]
Behaviour with ammonium compared with chloramine-T [1]: behave in the same manner

— patent publication US20080269338A1, “AQUEOUS SOLUTIONS CONTAINING CHLORAMINE WHICH ARE FREE FROM DI-AND TRICHLOROAMINE, AS WELL AS FROM AMMONIA” (priority 2007, published 2008)
